Assay results published in US20020002171A1, “Materials and methods for killing nematodes and nematode eggs” (priority 2000, published 2002).

System: Caenorhabditis elegans
Experiment: C. elegans L1 nematicidal dose response in 96-well plates, 5 day visual score (Example 2; same procedure for Example 7, Table 3)
Type: in vivo
Parameters: key to 5 Day Visual Score V1 / 5 Day Visual Score V2 / 5 Day Visual Score V3 / 5 Day Visual Score V4 / 5 Day Visual Score V6 / 5 Day Visual Score V5 / Initial HTS Run Visual Score / Follow-up HTS Run Visual Score: Dead: only stiff L1s (no movement); Dead (L4): worms are dead, but at a later larval stage; majority of worms are L1 (based on size) worms move when plate is tapped; majority of worms are L2 (based on size); majority of worms are L3 (based on size); majority of worms are L4 (based on size); AD: majority of worms are adult; #AD: 5 adult worms or less; B!: sterile (0-25 progeny); B: low broodsize (25-100 progeny); ˜B: moderate broodsize (100-250 progeny); <: reduced broodsize (250-500 progeny); OK: no effect (˜1000+ progeny)
Conditions: for 5 Day Visual Score V1 / 5 Day Visual Score V3 / 5 Day Visual Score V4 / 5 Day Visual Score V5 / 5 Day Visual Score V6 / 5 Day Visual Score V2: dose response; for 5 Day Visual Score V1: dilution V1, day 5; for 5 Day Visual Score V3: dilution V3, day 5; for 5 Day Visual Score V4: dilution V4, day 5; for 5 Day Visual Score V5: dilution V5, day 5; for 5 Day Visual Score V6: dilution V6, day 5; for 5 Day Visual Score V2: dilution V2, day 5
Procedure: Caenorhabditis elegans adults were grown on Nematode Growth Medium (NGM) until they produced eggs, then the adults were removed.
The eggs were allowed to hatch, and the L1 larvae collected. See The Nematode Caenorhabditis elegans (1988) Cold Spring Harbor Laboratory Press. Using a Matrix Programmable Pipette, the L1s were distributed into 96-well tissue culture plates, 20 L1 in 50 μl NGM per well. Antibiotic/Antimyoticwas added to each well, and 1% by weight E. coli strain HB101. The subject anthelmintic compounds were stored at 5 mM in 100% DMSO. 0.7 μl of compounds 1-31 were added to the left-most column of wells to yield a final concentration of 70 μM in 1.4% DMSO, with 1.4% DMSO only as the control. The compounds were then subjected to 5 more 3-fold dilutions from left to right to yield 6 column concentrations of 70 μM, 23.3 μM, 7.8 μM, 2.6 μM, 0.9 μM, and 0.3 μM. Plates were stored in air-tight Rubbermaid plastic boxes at 20° C. The nematodes had cleared all control wells by day 4, and nematode viability was scored by visual examination under a 100× dissecting microsope on day 5. A visual viability scoring system was used as follows:
Column V1 has a compound concentration of 70 μM with sequential 3-fold dilutions reported in columns V2, V3, V4, V5, and V6, respectively, such that the V6 concentration was 0.3 μM.
The nematicidal activity of anthelmintic Compositions 48-168 were determined in accordance with the procedure outlined in Example 2.

SMILES: C=CCN(CC=C)c1nc(N2CCN(c3c(C)cccc3C)CC2)ns1 [compound 232]
- Follow-up HTS Run % Run: 68%
- Follow-up HTS Run Visual Score: Dead/1AD/B
- Follow-up HTS Run mOD: 109 mOD
- Initial HTS Run % Run: 120%
- Initial HTS Run Visual Score: 2AD/B
- Initial HTS Run mOD: 132 mOD
- 5 Day Visual Score V1: Dead
- 5 Day Visual Score V3: OK (no effect (˜1000+ progeny))
- 5 Day Visual Score V4: OK (no effect (˜1000+ progeny))
- 5 Day Visual Score V5: OK (no effect (˜1000+ progeny))
- 5 Day Visual Score V6: OK (no effect (˜1000+ progeny))

SMILES: CCOC(=O)CCN(Cc1ccccc1)c1nc(N2CCN(c3c(C)cccc3C)CC2)ns1 [compound 233]
- Follow-up HTS Run % Run: 93%
- Follow-up HTS Run Visual Score: Dead
- Follow-up HTS Run mOD: 150 mOD
- Initial HTS Run % Run: 113%
- Initial HTS Run Visual Score: 1AD/B
- Initial HTS Run mOD: 124 mOD
- 5 Day Visual Score V1: Dead
- 5 Day Visual Score V3: ˜B (moderate broodsize (100-250 progeny))
- 5 Day Visual Score V4: OK (no effect (˜1000+ progeny))
- 5 Day Visual Score V5: OK (no effect (˜1000+ progeny))
- 5 Day Visual Score V6: OK (no effect (˜1000+ progeny))

SMILES: Cc1cccc(C)c1N1CCN(c2nsc(N(C)CCc3ccccc3)n2)CC1 [compound 234]
- Follow-up HTS Run % Run: 63%
- Follow-up HTS Run Visual Score: 2AD/B
- Follow-up HTS Run mOD: 102 mOD
- Initial HTS Run % Run: 120%
- Initial HTS Run Visual Score: 3AD/B
- Initial HTS Run mOD: 132 mOD
- 5 Day Visual Score V1: Dead
- 5 Day Visual Score V3: ˜B (moderate broodsize (100-250 progeny))
- 5 Day Visual Score V4: < (reduced broodsize (250-500 progeny))
- 5 Day Visual Score V5: OK (no effect (˜1000+ progeny))
- 5 Day Visual Score V6: OK (no effect (˜1000+ progeny))

SMILES: CCCCN(CC)c1nc(N2CCN(c3ncccn3)CC2)ns1 [compound 235]
- Follow-up HTS Run % Run: 127%
- Follow-up HTS Run Visual Score: L2 - 1/2 Dead
- Follow-up HTS Run mOD: 205 mOD
- Initial HTS Run % Run: 128%
- Initial HTS Run Visual Score: Dead (L3?)
- Initial HTS Run mOD: 141 mOD
- 5 Day Visual Score V1: Dead
- 5 Day Visual Score V2: #AD/˜B
- 5 Day Visual Score V3: OK (no effect (˜1000+ progeny))
- 5 Day Visual Score V4: OK (no effect (˜1000+ progeny))
- 5 Day Visual Score V5: OK (no effect (˜1000+ progeny))
- 5 Day Visual Score V6: OK (no effect (˜1000+ progeny))

SMILES: CCCCN(CC)c1nc(N2CCN(c3ccc(F)cc3)CC2)ns1 [compound 236]
- Follow-up HTS Run % Run: 123%
- Follow-up HTS Run Visual Score: Dead
- Follow-up HTS Run mOD: 198 mOD
- Initial HTS Run % Run: 136%
- Initial HTS Run Visual Score: 1AD/B
- Initial HTS Run mOD: 150 mOD
- 5 Day Visual Score V1: Dead
- 5 Day Visual Score V4: < (reduced broodsize (250-500 progeny))
- 5 Day Visual Score V5: < (reduced broodsize (250-500 progeny))
- 5 Day Visual Score V6: OK (no effect (˜1000+ progeny))

SMILES: CCN(Cc1ccccc1)c1nc(N2CCN(c3ccc(F)cc3)CC2)ns1 [compound 237]
- Follow-up HTS Run % Run: 117%
- Follow-up HTS Run mOD: 189 mOD
- Initial HTS Run % Run: 133%
- Initial HTS Run mOD: 146 mOD
- 5 Day Visual Score V1: L1
- 5 Day Visual Score V2: L1
- 5 Day Visual Score V3: L1
- 5 Day Visual Score V4: < (reduced broodsize (250-500 progeny))
- 5 Day Visual Score V5: OK (no effect (˜1000+ progeny))
- 5 Day Visual Score V6: OK (no effect (˜1000+ progeny))

SMILES: CCOC(=O)CCN(Cc1ccccc1)c1nc(N2CCN(c3ccc(F)cc3)CC2)ns1 [compound 238]
- Follow-up HTS Run % Run: 122%
- Follow-up HTS Run Visual Score: L4/AD/B
- Follow-up HTS Run mOD: 197 mOD
- Initial HTS Run % Run: 135%
- Initial HTS Run Visual Score: L4/Ad/B!
- Initial HTS Run mOD: 148 mOD
- 5 Day Visual Score V1: L1
- 5 Day Visual Score V3: < (reduced broodsize (250-500 progeny))
- 5 Day Visual Score V4: < (reduced broodsize (250-500 progeny))
- 5 Day Visual Score V5: OK (no effect (˜1000+ progeny))
- 5 Day Visual Score V6: OK (no effect (˜1000+ progeny))

SMILES: CCCCN(Cc1ccccc1)c1nc(N2CCCC(C(=O)N(CC)CC)C2)ns1 (stereo not drawn) [compound 239]
- Follow-up HTS Run % Run: 132%
- Follow-up HTS Run Visual Score: B (low broodsize (25-100 progeny))
- Follow-up HTS Run mOD: 212 mOD
- Initial HTS Run % Run: 134%
- Initial HTS Run Visual Score: L4/AD/B!
- Initial HTS Run mOD: 147 mOD
- 5 Day Visual Score V1: L2
- 5 Day Visual Score V2: B (low broodsize (25-100 progeny))
- 5 Day Visual Score V3: OK (no effect (˜1000+ progeny))
- 5 Day Visual Score V4: OK (no effect (˜1000+ progeny))
- 5 Day Visual Score V5: OK (no effect (˜1000+ progeny))
- 5 Day Visual Score V6: OK (no effect (˜1000+ progeny))

SMILES: Fc1ccc(CCNc2nsc(N3CCN(c4ccc(F)cc4)CC3)n2)cc1 [compound 240]
- Follow-up HTS Run % Run: 86%
- Follow-up HTS Run Visual Score: Dead
- Follow-up HTS Run mOD: 138 mOD
- Initial HTS Run % Run: 101%
- Initial HTS Run mOD: 111 mOD
- 5 Day Visual Score V1: Dead
- 5 Day Visual Score V2: L1
- 5 Day Visual Score V4: ˜B (moderate broodsize (100-250 progeny))
- 5 Day Visual Score V5: < (reduced broodsize (250-500 progeny))
- 5 Day Visual Score V6: OK (no effect (˜1000+ progeny))

SMILES: CCN(Cc1ccccc1)c1nc(NCCc2ccc(F)cc2)ns1 [compound 241]
- Follow-up HTS Run % Run: 88%
- Follow-up HTS Run Visual Score: B (low broodsize (25-100 progeny))
- Follow-up HTS Run mOD: 141 mOD
- Initial HTS Run % Run: 114%
- Initial HTS Run mOD: 125 mOD
- 5 Day Visual Score V2: ˜B (moderate broodsize (100-250 progeny))
- 5 Day Visual Score V3: OK (no effect (˜1000+ progeny))
- 5 Day Visual Score V4: OK (no effect (˜1000+ progeny))
- 5 Day Visual Score V5: OK (no effect (˜1000+ progeny))
- 5 Day Visual Score V6: OK (no effect (˜1000+ progeny))

SMILES: CCOC(=O)CCN(Cc1ccccc1)c1nc(NCCc2ccc(F)cc2)ns1 [compound 242]
- Follow-up HTS Run % Run: 87%
- Follow-up HTS Run mOD: 140 mOD
- Initial HTS Run % Run: 106%
- Initial HTS Run Visual Score: Dead (L3?)
- Initial HTS Run mOD: 117 mOD
- 5 Day Visual Score V2: B (low broodsize (25-100 progeny))
- 5 Day Visual Score V3: OK (no effect (˜1000+ progeny))
- 5 Day Visual Score V4: OK (no effect (˜1000+ progeny))
- 5 Day Visual Score V5: OK (no effect (˜1000+ progeny))
- 5 Day Visual Score V6: OK (no effect (˜1000+ progeny))

SMILES: CN(CCc1ccccc1)c1nc(NCCc2ccc(F)cc2)ns1 [compound 243]
- Follow-up HTS Run % Run: 86%
- Follow-up HTS Run Visual Score: B (low broodsize (25-100 progeny))
- Follow-up HTS Run mOD: 139 mOD
- Initial HTS Run % Run: 115%
- Initial HTS Run Visual Score: L4/AD/B!
- Initial HTS Run mOD: 127 mOD
- 5 Day Visual Score V2: B (low broodsize (25-100 progeny))
- 5 Day Visual Score V3: OK (no effect (˜1000+ progeny))
- 5 Day Visual Score V4: OK (no effect (˜1000+ progeny))
- 5 Day Visual Score V5: OK (no effect (˜1000+ progeny))
- 5 Day Visual Score V6: OK (no effect (˜1000+ progeny))

SMILES: CC1(C)CC(O)CC(C)(CNc2nsc(N3CCN(c4ccc(F)cc4)CC3)n2)C1 (stereo not drawn) [compound 244]
- Follow-up HTS Run % Run: 104%
- Follow-up HTS Run Visual Score: Dead
- Follow-up HTS Run mOD: 167 mOD
- Initial HTS Run % Run: 125%
- Initial HTS Run Visual Score: Dead
- Initial HTS Run mOD: 138 mOD
- 5 Day Visual Score V1: Dead
- 5 Day Visual Score V2: Dead
- 5 Day Visual Score V3: < (reduced broodsize (250-500 progeny))
- 5 Day Visual Score V4: OK (no effect (˜1000+ progeny))
- 5 Day Visual Score V5: OK (no effect (˜1000+ progeny))
- 5 Day Visual Score V6: OK (no effect (˜1000+ progeny))

SMILES: CC1CC(C)CN(c2nc(NCc3c(F)cccc3F)ns2)C1 (stereo not drawn) [compound 245]
- Follow-up HTS Run % Run: 117%
- Follow-up HTS Run Visual Score: B! (sterile (0-25 progeny))
- Follow-up HTS Run mOD: 189 mOD
- Initial HTS Run % Run: 103%
- Initial HTS Run Visual Score: B!-Few Eggs
- Initial HTS Run mOD: 113 mOD
- 5 Day Visual Score V1: L2/Dead(L3)
- 5 Day Visual Score V2: #AD/˜B
- 5 Day Visual Score V3: < (reduced broodsize (250-500 progeny))
- 5 Day Visual Score V4: OK (no effect (˜1000+ progeny))
- 5 Day Visual Score V5: OK (no effect (˜1000+ progeny))
- 5 Day Visual Score V6: OK (no effect (˜1000+ progeny))
